# Test results published in US20220295782A1, “METHOD FOR PRODUCING FROZEN BODY OF THREE-DIMENSIONAL TISSUE AGGREGATE OF RETINAL PIGMENT EPITHELIAL CELLS” (NICHIREI BIOSCIENCE INC., priority 2019, published 2022).
# Read-outs that look alike come from different tables or passages of the source.
# Test system: RPE cells
# Experimental: RPE cells (manufactured by Lonza K.K., 00194987) were seeded on a 96-well plate (Falcon, 353072) at 3.3×10^4 cells/well, and cultured in a maintenance medium (350 mL of DMEM (Sigma, D6046), 150 mL of F12 HAM (Sigma, N6658), 10 mL of B27 (Invitrogen, 17504-044), 5 mL of 200 mM L-glutamine (Sigma, G7513), 10 ng/mL of bFGF (Wako, 060-04543), […] of SB431542 hydrate (Sigma, S4317)) until the cells reached confluent. The cultured cells were washed with PBS(−) at room temperature, and then exposed to a pretreatment solution for 10 minutes or 30 minutes.
# As the pretreatment solutions, solutions having EG concentrations of 10 (v/v) %, 12.5 (v/v) %, 15 (v/v) %, 17.5 (v/v) % and 20 (v/v) % were used. As the solvent of the pretreatment solution, a Dulbecco's modified Eagle's medium (DMEM) supplemented with 2 mM L-glutamine or PBS(−) was used.
structure (smiles),measurement,setting,value
"OCCO [EG, ethylene glycol]","initial toxicity (metabolic activity of cells, MTS assay)","0 hours of culture time, EG 10-20 (v/v) % in DMEM supplemented with 2 mM L-glutamine, exposure 10 minutes",increased in a concentration-dependent manner from the EG concentration of 12.5 (v/v) %
same,time to recovery of metabolic activity,30-minute exposure versus 10-minute exposure,longer time to recovery is required
same,cytotoxicity (MTS assay),30 minutes of exposure time to the pretreatment solution,same tendency of cytotoxicity as in the results of FIG. 1
same,cytotoxicity (MTS assay),PBS(-) used as the solvent,the same tendency as when the DMEM medium supplemented with glutamine was used
same,culture time in which recovery of metabolic activity is possible,"up to EG concentration of 17.5 (v/v) %, DMEM with glutamine, exposure 10 minutes",about 24 hours
